According to ChEMBL document CHEMBL4000244, “Probing A-form DNA: A fluorescent aminosugar probe and dual recognition by anthraquinone-neomycin conjugates” (Bioorg Med Chem, 2017):
Active and inactive are the calls of the source. The rule behind the calls is not given here.

Key:
[1] = Displacement of fluorescein-neomycin from d(G4C4)2 DNA at 200 nM by fluorescence assay
[2] = Binding affinity to d(G4C4)2 DNA major groove assessed as stabilization of A-from DNA conformation after 30 mins by CD spectroscopic method
[3] = Displacement of fluorescein-neomycin from d(G4C4)2 DNA by Scatchard plot analysis
[4] = Displacement of thiazole orange from d(G4C4)2 DNA by Scatchard plot analysis
[5] = Displacement of fluorescein-neomycin from d(G4C4)2 DNA major groove by fluorescence titration assay
[6] = Binding affinity to d(G4C4)2 DNA major groove assessed as stabilization of A-from DNA conformation at drug:DNA molar ratio of 4:1 after 30 mins by CD spectroscopic method
[7] = Binding affinity to d(G4C4)2 DNA major groove assessed as stabilization of A-from DNA conformation by measuring induction of sharper band at 265 nanometer at drug:DNA molar ratio of 1:1 after 30 mins by CD spectroscopic method
[8] = Binding affinity to d(G4C4)2 DNA major groove assessed as stabilization of A-from DNA conformation at 0.25 to 1.5 equiv after 30 mins by thiazole orange probe based CD spectroscopic method
[9] = Binding affinity to d(G4C4)2 DNA major groove assessed as stabilization of A-from DNA conformation at 0.05 to 1.5 equiv after 30 mins by fluorescein-neomycin probe based CD spectroscopic method

| Compound | inhibition [1] | Ka [3] | Ka [4] | other results |
| --- | --- | --- | --- | --- |
| NCC1O[C@H](O[C@H]2[C@@H](O)[C@H](O[C@@H]3[C@@H](O)[C@H](N)C[C@H](N)[C@H]3O[C@H]3O[C@H](CN)[C@@H](O)[C@H](O)[C@H]3N)O[C@@H]2CNC(=S)NCCCNC(=S)NCc2ccc3c(c2)C(=O)c2ccccc2C3=O)[C@H](N)[C@@H](O)[C@@H]1O (some centres undefined) | Active | – | – | – |
| OCC(F)(F)F | – | – | – | Activity [2]: Active |
| O=C1c2ccccc2C(=O)c2ccccc21 | inactive | – | – | – |
| NCC1O[C@H](O[C@H]2[C@@H](O)[C@H](O[C@@H]3[C@@H](O)[C@H](N)C[C@H](N)[C@H]3O[C@H]3O[C@H](CN)[C@@H](O)[C@H](O)[C@H]3N)O[C@@H]2CNC(=S)NCCCOCCCCOCCCNC(=S)NCc2ccc3c(c2)C(=O)c2ccccc2C3=O)[C@H](N)[C@@H](O)[C@@H]1O (some centres undefined) | Active | 8.83 ×10⁶ /M | 11.8 ×10⁶ /M | – |
| NCC1O[C@H](O[C@H]2[C@@H](O)[C@H](O[C@@H]3[C@@H](O)[C@H](N)C[C@H](N)[C@H]3O[C@H]3O[C@H](CN)[C@@H](O)[C@H](O)[C@H]3N)O[C@@H]2CSCCNC(=S)NCCCNC(=S)NCc2ccc3c(c2)C(=O)c2ccccc2C3=O)[C@H](N)[C@@H](O)[C@@H]1O (some centres undefined) | Active | – | – | – |
| NCC1O[C@H](O[C@H]2[C@@H](O)[C@H](O[C@@H]3[C@@H](O)[C@H](N)C[C@H](N)[C@H]3O[C@H]3O[C@H](CN)[C@@H](O)[C@H](O)[C@H]3N)O[C@@H]2CNC(=S)NCc2ccc3c(c2)C(=O)c2ccccc2C3=O)[C@H](N)[C@@H](O)[C@@H]1O (some centres undefined) | Active | 14.1 ×10⁶ /M | 5.27 ×10⁶ /M | IC50 [5]: 748 nM |
| CN1/C(=C/c2cc[n+](C)c3ccccc23)Sc2ccccc21 | – | – | – | Activity [6]: inactive |
| NCC1O[C@H](O[C@H]2[C@@H](O)[C@H](O[C@@H]3[C@@H](O)[C@H](N)C[C@H](N)[C@H]3O[C@H]3O[C@H](CN)[C@@H](O)[C@H](O)[C@H]3N)O[C@@H]2CNC(=S)NCCCCCCCCCCNC(=S)NCc2ccc3c(c2)C(=O)c2ccccc2C3=O)[C@H](N)[C@@H](O)[C@@H]1O (some centres undefined) | Active | – | – | – |
| NCC1O[C@H](O[C@H]2[C@@H](O)[C@H](O[C@@H]3[C@@H](O)[C@H](N)C[C@H](N)[C@H]3O[C@H]3O[C@H](CN)[C@@H](O)[C@H](O)[C@H]3N)O[C@@H]2CNC(=S)Nc2ccc3c(c2)C(=O)c2ccccc2C3=O)[C@H](N)[C@@H](O)[C@@H]1O (some centres undefined) | Active | – | – | – |
| NCC1O[C@H](O[C@H]2[C@@H](O)[C@H](O[C@H]3[C@H](O)[C@@H](N)C[C@@H](N)[C@@H]3O[C@H]3O[C@H](CN)[C@@H](O)[C@H](O)[C@H]3N)O[C@@H]2CO)[C@H](N)[C@@H](O)[C@@H]1O (some centres undefined) | inactive | – | – | Activity [7]: Active |
| NCC1O[C@H](O[C@H]2[C@@H](O)[C@H](O[C@@H]3[C@@H](O)[C@H](N)C[C@H](N)[C@H]3O[C@H]3O[C@H](CN)[C@@H](O)[C@H](O)[C@H]3N)O[C@@H]2CSCCNC(=S)NCc2ccc3c(c2)C(=O)c2ccccc2C3=O)[C@H](N)[C@@H](O)[C@@H]1O (some centres undefined) | Active | 25.3 ×10⁶ /M | 3.62 ×10⁶ /M | Activity [8]: Active; Activity [9]: Active |
| NCC1O[C@H](O[C@H]2[C@@H](O)[C@H](O[C@@H]3[C@@H](O)[C@H](N)C[C@H](N)[C@H]3O[C@H]3O[C@H](CN)[C@@H](O)[C@H](O)[C@H]3N)O[C@@H]2CSCCNC(=S)NCCNC(=S)NCc2ccc3c(c2)C(=O)c2ccccc2C3=O)[C@H](N)[C@@H](O)[C@@H]1O (some centres undefined) | Active | 2.28 ×10⁶ /M | 3.09 ×10⁶ /M | – |
| NCC1O[C@H](O[C@H]2[C@@H](O)[C@H](O[C@@H]3[C@@H](O)[C@H](N)C[C@H](N)[C@H]3O[C@H]3O[C@H](CN)[C@@H](O)[C@H](O)[C@H]3N)O[C@@H]2CSCCNC(=S)Nc2ccc3c(c2)C(=O)c2ccccc2C3=O)[C@H](N)[C@@H](O)[C@@H]1O (some centres undefined) | Active | – | – | – |
| CCO | – | – | – | Activity [2]: Active |
| NCCCNCCCCNCCCN | – | – | – | Activity [7]: Active |
| NCC1O[C@H](O[C@H]2[C@@H](O)[C@H](O[C@@H]3[C@@H](O)[C@H](N)C[C@H](N)[C@H]3O[C@H]3O[C@H](CN)[C@@H](O)[C@H](O)[C@H]3N)O[C@@H]2CSCCNC(=S)NCCCCCCCCCCNC(=S)NCc2ccc3c(c2)C(=O)c2ccccc2C3=O)[C@H](N)[C@@H](O)[C@@H]1O (some centres undefined) | Active | – | – | – |
| NCC1O[C@H](O[C@H]2[C@@H](O)[C@H](O[C@@H]3[C@@H](O)[C@H](N)C[C@H](N)[C@H]3O[C@H]3O[C@H](CN)[C@@H](O)[C@H](O)[C@H]3N)O[C@@H]2CSCCNC(=S)NCCCOCCCCOCCCNC(=S)NCc2ccc3c(c2)C(=O)c2ccccc2C3=O)[C@H](N)[C@@H](O)[C@@H]1O (some centres undefined) | Active | 4.02 ×10⁶ /M | 18.4 ×10⁶ /M | – |
| NCC1O[C@H](O[C@H]2[C@@H](O)[C@H](O[C@@H]3[C@@H](O)[C@H](N)C[C@H](N)[C@H]3O[C@H]3O[C@H](CN)[C@@H](O)[C@H](O)[C@H]3N)O[C@@H]2CNC(=S)NCCNC(=S)NCc2ccc3c(c2)C(=O)c2ccccc2C3=O)[C@H](N)[C@@H](O)[C@@H]1O (some centres undefined) | Active | 4.88 ×10⁶ /M | 3.85 ×10⁶ /M | – |
